Activity calls are given as the source filed them. The calls are words filed in the database; no cut-off is given here.
Key:
[1] = tested on: Rattus norvegicus; experiment: Antiallergic activity in sensitized rat assessed as inhibition of ovalbumin-induced passive cutaneous anaphylaxis at 3 mg/kg, iv after 30 mins relative to control; assay type: functional; conditions: 0.5 h
[2] = Antiallergic activity in rat Peritoneal mast cell assessed as inhibition of compound 48/80-induced histamine release at 20 uM; assay type: functional
[3] = Antiallergic activity in rat Peritoneal mast cell assessed as inhibition of compound 48/80-induced histamine release; assay type: functional, cell-based
[4] = tested on: Mus musculus; experiment: Antiinflammatory activity in Laca mouse assessed as inhibition of arachidonic acid induced ear oedema at 300 ug/ear; assay type: functional, organism-based
[5] = Antiallergic activity in rat Peritoneal mast cell assessed as inhibition of Con A-induced histamine release; assay type: functional, cell-based
[6] = Antiallergic activity in rat Peritoneal mast cell assessed as inhibition of ionophore A23187-induced histamine release; assay type: functional, cell-based
[7] = Lipophilicity, log P of the compound; assay type: physicochemical; conditions: octanol/water

SMILES	IC50 [3]	IC50 [5]	IC50 [6]	logP [7]	inhibition in vivo at 3 mg/kg [1]	inhibition at 20 µM [2]	Activity [4]
O=C(O)c1cc(=O)c2c(OCC(O)COc3cccc4oc(C(=O)O)cc(=O)c34)cccc2o1 [CROMOLYN SODIUM]	–	–	–	–	87%	10%	–
OC1c2ccccc2CC1(Cc1ccccc1)C1=Cc2ccccc2CC1 (stereo not given)	7.7 µM	3.6 µM	4.7 µM	6.3	2%	–	inactive
CC(/C=C/c1ccccc1)(Cc1ccccc1)C(O)c1ccccc1 (stereo not given)	70.9 µM	–	–	–	–	–	–
CC(Cc1ccccc1)(C1=Cc2ccccc2C1)C(O)c1ccccc1 (stereo not given)	–	–	–	–	–	82%	inactive
Cc1ccc(CC2(/C=C/c3ccccc3)CCc3ccccc3C2O)cc1 (stereo not given)	9.4 µM	–	–	–	–	–	–
O=C1c2ccccc2CCC1C1=Cc2ccccc2CC1 (stereo not given)	8 µM	–	–	–	–	–	–

The next lines start with results.

IC50 [3]	IC50 [5]	IC50 [6]	logP [7]	SMILES	inhibition in vivo at 3 mg/kg [1]	inhibition at 20 µM [2]	Activity [4]
55.3 µM	–	–	6.58	OC1c2ccccc2CCC1(/C=C/c1ccccc1)Cc1ccccc1 (stereo not given)	44%	–	inactive
3.3 µM	–	–	–	CC(Cc1ccccc1)(C1=Cc2ccccc2CC1)C(O)c1ccccc1 (stereo not given)	–	–	inactive
4.1 µM	0.75 µM	10 µM	6.3	OC1c2ccccc2CCC1(Cc1ccccc1)C1=Cc2ccccc2C1 (stereo not given)	-5%	–	Active

Reference: ChEMBL document CHEMBL1770049, “Synthesis of novel mast cell-stabilising and anti-allergic 1,2,3,4-tetrahydro-1-naphthalenols and related compounds” (Eur J Med Chem, 2011)
